According to patent US20090263429A1, “Method of Preparing a Hydrogel” (The University of Manchester, priority 2005, published 2009):

Test: 96 well screen of Fmoc/Cbz-amino acid and dipeptide with thermolysin (gelation)
Type: physicochemical
Settings: Fmoc-G and GG with thermolysin, 20 mM Fmoc-aa, 48 hours at room temperature
Description: Fmoc-amino acids or Cbz-amino acids with dipeptides were weighed in to a clean universal to the different concentrations and the various ratios required. They were then suspended in deionised water, and solubilized by the addition of 0.5M NaOH to adjust the pH to 13. The particle size was reduced through the reduction of larger clumps by gentle manipulation with a spatula, and the subsequent immersion in a sonication bath. […] The pH was reduced by the addition dropwise from a 200 μl pipette of 0.1 M HCl with gentle vortexing until the value reached 7. […] Upon acquisition of a neutral pH, de-ionised water was added up to the required volume.
The enzyme, thermolysin, was provided in the form of a lyphophilized powder. This was weighed to a sterile universal, and then reconstituted in distilled water to a concentration of 1 mg/ml. In order to ensure the enzyme was fully solubilised, the solution was vortexed for thirty seconds, and stored at room temperature within a sealed container and used within thirty minutes. […]
A 96 well format was developed to screen large numbers of combinations of reactant ratios and concentrations. […] Relative quantities of these were added. […] Sufficient quantities of distilled water were added to make up to a final volume of […]. […] Results of the reactions were measured by HPLC, and the degree of conversion of Fmoc/Cbz-amino acid to Fmoc/Cbz-tripeptide was calculated.

- gel formation: doesn't form a gel
Substance: Fmoc-triGlycine [Fmoc-GGG]
